The source of these data is patent US11065266B2, “Method of treating melanoma using an inhibitor of an atypical protein kinase C” (UNIVERSITY OF SOUTH FLORIDA, priority 2016, dated 2021).

One test relates to MeWo cells. The test is described as follows: WST-1 assay for cell viability and cytotoxicity. The note with it: treated at IC50, 3 days. It is filed as cell-based, human. Here is the method:
(§1) Approximately 4×10^3 cells (PCS-200-013, SK-MEL-2 and MeWo) were cultured in a 96 well plate. […] This IC50 was obtained based on the cell viability counts in the previous experiments. Additional doses of sterile water or inhibitor were supplied every 24 h during 3 day incubation period. At the end of 3 day treatment, media were removed and fresh media (100 μL) were added with 4-[3-(4-iodophenyl)-2-(4-nitropheny))-2H-5-tetrazolio]-1,3-benzene disulfonate (WST-1) reagent (10 μL) to each well. The absorbance was measured at 450 nm for every 0.5 hour up to 3 hours using the Synergy HT microplate reader from Biotek (Winooski, Vt.).
WST-1 assay was performed to determine the in-vitro cytotoxicity of ACPD and DNDA on normal and malignant cell lines. Measured absorbance at 450 nm is directly proportional to the number of cells present. Cells produce a water soluble formazan with WST-1 as a result of their mitochondrial dehydrogenase activity. WST-1 assay is preferred over 3-(4,S-Dimethyl-2-thiazolyl)-2, 5-diphenyl-2Htetrazolium bromide (MTT) test since MTT needs to add acidic isopropanol to dissolve formazan which gives an additional toxicity to cells.
On the technique in general: Tetrazolium dyes change colour on reduction, which living cells bring about.

The target of a further test is T1, PKC-ι (Homo sapiens, UniProt P41743).
T1 sequence (P41743 1-596): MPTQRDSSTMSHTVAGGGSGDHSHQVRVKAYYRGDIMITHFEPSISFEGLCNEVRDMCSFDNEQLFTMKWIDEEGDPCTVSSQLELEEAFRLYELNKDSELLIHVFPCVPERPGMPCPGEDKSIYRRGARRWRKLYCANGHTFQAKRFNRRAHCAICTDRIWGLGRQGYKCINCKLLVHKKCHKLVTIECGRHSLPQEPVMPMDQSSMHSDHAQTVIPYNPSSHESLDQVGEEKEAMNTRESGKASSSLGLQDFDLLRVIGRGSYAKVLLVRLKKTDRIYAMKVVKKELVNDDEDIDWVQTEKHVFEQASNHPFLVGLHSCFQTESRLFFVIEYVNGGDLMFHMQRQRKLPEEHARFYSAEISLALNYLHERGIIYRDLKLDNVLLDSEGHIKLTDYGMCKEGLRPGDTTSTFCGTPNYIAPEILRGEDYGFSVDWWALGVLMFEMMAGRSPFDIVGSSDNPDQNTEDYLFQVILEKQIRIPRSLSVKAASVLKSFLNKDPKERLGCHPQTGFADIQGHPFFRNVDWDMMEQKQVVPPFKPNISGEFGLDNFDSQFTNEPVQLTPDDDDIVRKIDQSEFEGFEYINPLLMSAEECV
Set-up: dose or concentration left out as unconfirmed. The settings on record: cited from earlier work.

The test system of test [1] is malignant melanoma cells (SK-MEL-2 and MeWo). The test is described as follows: WST-1 assay, ζ-Stat. Format: cell-based, human. The settings on record: 2.5 μM. Here is the method: as §1
Cell proliferation was measured using WST-1 assay for SK-MEL-2 (FIG. 16A) and MeWo (FIG. 16b). Absorbance at 450 nm due to production of water soluble formazan was measured as a function of time and the absorbance is directly proportional to the number of cells. The experimental concentration for ζ-Stat was 2.5 μM. N=3 experiments were performed for each cell line and mean±SD are plotted.

With `CC(=O)C1=C(O)CCC1=O` [ACPD, 2-acetyl-1,3-cyclopentanedione], the “WST-1 absorbance at 450 nm, effect” value with MeWo cells was “did not show a significant effect”. On PKC-ι, the “inhibition of PKC-ι” value is “approximately 40%”.

In the case of `O=S(=O)(O)c1cc(O)c2c(S(=O)(=O)O)cc(S(=O)(=O)O)cc2c1` [ζ-Stat, 8-hydroxy-1,3,6-naphthalenetrisulfonic acid], the “toxicity according to the WST-1 assay” value in test [1] is reported as “did not show toxicity”.
